Assay results as given in patent publication US20070186288A1, “Zebrafish models of acute myelogenous leukemia” (priority 2005, published 2007).
Entries after “also recorded” stand apart in the source; their conditions may differ. Read-outs that look alike come from different tables or passages of the source.

Experiments:
[1] = tested on: AML1-ETO phenotype in Tg(hsp:AML1-ETO) zebrafish embryos; format: in vivo; settings: for percentage of AML1-ETO-expressing embryos without circulating blood: 500 μM morpholino solution injected into 1-cell stage embryos, heat treated at 4, 16, 24 hpf, scored at 44 hpf, non-injected control 90.2%
Experimental: The Petri dishes containing zebrafish embryos were transferred from the growth temperature of 23-28.5° C. to a 37-42° C. incubator and incubated for 1 hour before returning them back to the normal temperature. The heat treatment may be repeated three to four times over 12-hour intervals as specified below. The percentages of embryos with phenotype were scored by visual inspection of the loss of circulating blood in the embryos after 40 hpf.
The morpholino antisense oligonucleotides hAML1-MO (5′-[…]; SEQ ID NO:3), which targets the translation start codon of human AML1, and zTIS11b-MO (5′-[…]; SEQ ID NO:4), which targets the splice donor site of zebrafish TIS11b transcripts, were obtained from Gene-Tools, LLC. For microinjection, 500 μM hAML1-MO or 200 μM zTIS11b-MO in 0.3× Danieau's buffer (17 mM NaCl, 2 mM KCl, 0.12 mM MgSO4, 1.8 mM Ca(NO3)2 and 1.5 mM HEPES, pH 7.6) were prepared and injected as described (Nasevicius et al., Nat. Genet. 26:216-220, 2000).
In AML1-ETO-expressing fish, the absence of circulating cells and the accumulation of non-circulating hematopoietic cells in the ICM are readily detected by eye. Therefore, circulation may be a simple surrogate phenotype for detecting the presence or absence of the AML1-ETO phenotype. To confirm that the loss-of-circulation phenotype is dependent on the inducible expression of AML1-ETO in the transgenic zebrafish, we tested whether this phenotype can be rescued by blocking AML1-ETO expression using an antisense morpholino oligonucleotide (hAML1-MO) complementary to the translation start site of the human AML1-ETO mRNA. Homogeneous transgenic embryo clutches were obtained from crosses between homozygous Tg(hsp:AML1-ETO) and wild-type fish. These embryos were heat treated at 4, 16, and 24 hpf, and were then scored at 44 hpf. […] On the other hand, in the heat-treated Tg(hsp:AML1-ETO) fish embryos, most of the blood cells accumulate in the ICM, especially at the location close to the end of the yolk extension, and fail to enter circulation. However, injection of HAML1-MO into 1-cell stage embryos restores the circulation in the transgenic embryos.
Zebrafish embryos readily absorb small molecules from the surrounding medium, rendering them a powerful tool to assess pharmacological efficacy (Peterson et al., Methods Cell. Biol. 76:569-591, 2004; Zon et al., Nat. Rev. Drug Discov. 4:35-44, 2005). […] While ATRA is generally not very effective in differentiating t(8;21) leukemic cells, complete remission of a patient with t(8;21) translocation has been reported (Chen et al., Chin. Med. J. (Engl). 115:58-61, 2002). We tested the efficacy of ATRA in reversing the zebrafish AML1-ETO phenotype. In this experiment, we heat-shocked the embryos three times instead of four times at 37° C. in order to reduce the phenotypic penetrance in the Tg(hsp:AML1-ETO) fish embryos to around 80%. Meanwhile, ATRA was added at 24 hpf.
The upregulation of TIS11b had been hypothesized to contribute to AML pathogenesis, but this hypothesis had not been tested. To elucidate the role of TIS11b in the AML1-ETO phenotype, we knocked down TIS11b by injecting an antisense morpholino oligonucleotide complementary to the […] of the zebrafish TIS11b gene (zTIS11b-MO).

[2] = tested on: hematopoietic cells of Tg(hsp:AML1-ETO) zebrafish embryos; test: Cytology (Wright-Giemsa) of blood extracted from Tg(hsp:AML1-ETO) embryos; format: in vivo; settings: 200 μM morpholino solution injected; mild heat treatment
Source text: Blood cells were collected from anesthetized wild-type and AML1-ETO embryos at 40 hpf by transferring live fish to phosphate buffered saline containing 50 U/ml heparin, 1% bovine serum albumin, and 0.006% tricaine. Tails were excised posterior to the yolk extension (at approximately the site of the posterior ICM) using a scalpel. Blood cells were extruded from the site of excision using the blunt edge of the scalpel and collected using a micropipette.
For cytological analyses, blood cells collected from the zebrafish embryos were transferred onto glass slides by cytospin and stained by Protocol® Wright-Giemsa stain (Fisher Diagnostics) following manufacturer's instruction. To label red blood cells in the zebrafish embryos, whole-mount cytochemistry staining with […] was performed as previously described (Weinstein et al., Development 123:303-309, 1996).

For “hAML1-MO: morpholino antisense oligonucleotide 5′-CTGGCATCTACGGGGATACGCATCA (SEQ ID NO:3), targets the translation start codon of human AML1 (all phosphorodiamidate morpholino (PMO); listed as Homo sapiens)”, the “percentage of AML1-ETO-expressing embryos without circulating blood” value [1] was “less than 10%” and the “percentage of AML1-ETO-expressing embryos without circulating blood” value ([1]; listed as HAML1-MO) was 6.7%.

For CC1=C(/C=C/C(C)=C/C=C/C(C)=C/C(=O)O)C(C)(C)CCC1 [ATRA, all-trans retinoic acid], the “percentage of embryos possessing circulation” value ([1]; 10 pM added at 24 hpf, three 1-hour 37° C. heat treatments at 4, 16, 24 hpf, scored at 40 hpf, vehicle 20%, p=0.0085) was 36% and the “degree of rescue at higher concentrations” value ([1]; concentrations above 10 pM (range tested 1 pM to 1 nM)) was “did not increase”.

With “zTIS11b-MO: morpholino antisense oligonucleotide 5′-ACTTTTCTCCATACCTTGTTGTTGA (SEQ ID NO:4), targets the splice donor site of zebrafish TIS11b transcripts (all phosphorodiamidate morpholino (PMO))” the “percentage of injected Tg(hsp:AML1-ETO) embryos exhibiting the AML1-ETO (lack of circulation) phenotype” value ([1]; 200 μM morpholino solution injected, mild heat treatment, uninjected less than 30%) was 98% and the “blast cells in blood of injected Tg(hsp:AML1-ETO) embryos by cytological analysis” value [2] was “accumulation of hematopoietic blast cells; also recorded: abundant immature blast-like cells”.
